From patent EP0103381B1, “Substituted anthra(1,9-cd)pyrazol-6(2H)-ones” (WARNER-LAMBERT COMPANY, priority 1982, dated 1984) come the findings set out here.

One experiment relates to Penicillium avellaneum. In words: agar plate paper-disc inhibition zone screening. It is filed as cell-based. Particulars: Hamigera avellanea; Dose 3.0 mg/ml; read-out: Inhibition Zone Diameter mm (Dose mg/ml) P. Avellaneum. An outline of the steps:
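Mycelia and spores from a six-day 28°C agar culture, suspended in saline with 0.05% Tween 80 at 20% transmittancy, were seeded into molten agar trays. Compounds at 3,000, 1,000, 500, 100 and 10 mcg/ml (solvent <10%) were applied on 12.7 mm paper discs. After at least 20-24 h incubation, inhibition zone diameter was measured in mm.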

Experiment [1] concerns lymphocytic leukemia P388. As to the kind of experiment: in vivo lymphocytic leukemia P388 test. Details: species or system mice. Particulars: Mus musculus, P388, ip, 720 h, two single doses four days apart, read-out: T/C × 100 (Percent); for response vs control in vivo at 12.5 mg/kg: P388, Dose 12.5 mg/kg intraperitoneally; for response vs control in vivo at 25 mg/kg: P388, Dose 25 mg/kg intraperitoneally; for response vs control in vivo at 6.25 mg/kg: P388, Dose 6.25 mg/kg intraperitoneally; for response vs control in vivo at 3.12 mg/kg: P388, Dose 3.12 mg/kg intraperitoneally. An outline of the steps:
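Efficacy was judged from the treated/control survival-time ratio over 30 days (T/C×100 >125% as criterion). Mice (CD2F, 6–7/group) received i.p. P388 ascites cells, then compound i.p. at varied doses twice, four days apart.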

For the next experiment, the system named is Bacillus subtilis. As to the kind of experiment: agar plate paper-disc inhibition zone screening. The experiment is classed as cell-based. The note with it: read-out: Inhibition Zone Diameter mm (Dose mg/ml) B. Subtilis; for zone of inhibition at 3000 µg/mL: Dose 3.0 mg/ml. An outline of the steps: (§1)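 Overnight bacterial cultures were suspended in 0.85% saline to 20-35% light transmittancy and mixed into molten assay agar poured in trays. Compounds at 3,000, 1,000, 500, 100 and 10 mcg/ml (solvent <10%) were applied to 12.7 mm paper discs; after 18-20 h at 37°C, inhibition zone diameters were measured in mm.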

Another experiment relates to Streptococcus faecalis. In words: agar plate paper-disc inhibition zone screening. The experiment is classed as cell-based. Particulars: Enterococcus faecalis, read-out: Inhibition Zone Diameter mm (Dose mg/ml) S. Faecalis; for zone of inhibition at 3000 µg/mL: Dose 3.0 mg/ml. An outline of the steps:
as §1

A further experiment deals with Escherichia coli. As to the kind of experiment: agar plate paper-disc inhibition zone screening. It is filed as cell-based. Particulars: read-out: Inhibition Zone Diameter mm (Dose mg/ml) E. Coli; for zone of inhibition at 1000 µg/mL: Dose 1.0 mg/ml; for zone of inhibition at 3000 µg/mL: Dose 3.0 mg/ml. An outline of the steps:
as §1

The test system of the next experiment is Aerobacter aerogenes. In words: agar plate paper-disc inhibition zone screening. The experiment is classed as cell-based. Particulars: Klebsiella aerogenes, read-out: Inhibition Zone Diameter mm (Dose mg/ml) A. Aerogenes; for zone of inhibition at 3000 µg/mL: Dose 3.0 mg/ml; for zone of inhibition at 500 µg/mL: Dose 0.5 mg/ml. The essentials: as §1

Regarding `COCCn1nc2c3c(c(NCCNCCO)ccc31)C(=O)c1c(O)ccc(O)c1-2` [Example 76, 7,10-Dihydroxy-5-[[2-[(2-hydroxyethyl)amino]ethyl]amino]-2-(2-methoxyethyl)anthra[1,9-cd]pyrazol-6(2H)-one], the zone of inhibition at 3000 µg/mL in the experiment with Penicillium avellaneum came to 0 mm; in the experiment with Bacillus subtilis it was 14 mm; in the experiment with Streptococcus faecalis, 0 mm; in the experiment on Aerobacter aerogenes, 14 mm. In addition, in experiment [1], the response vs control in vivo at 12.5 mg/kg turned out to be 127%. Moreover, in experiment [1], the response vs control in vivo at 25 mg/kg is 127%. The response vs control in vivo at 50 mg/kg in experiment [1] (P388, Dose 50 mg/kg intraperitoneally) was 135%. Besides, the response vs control in vivo at 100 mg/kg in experiment [1] (P388, Dose 100 mg/kg intraperitoneally) came out at 139%. Besides, the zone of inhibition at 1000 µg/mL with Escherichia coli turned out to be 14 mm.
Take `CN(C)CCCn1nc2c3c(c(NCCCN)ccc31)C(=O)c1c(O)ccc(O)c1-2` [Example 47, 5-[(3-Aminopropyl)amino]-2-[3-(dimethylamino)propyl]-7,10-dihydroxyanthra[1,9-cd]pyrazol-6(2H)-one]: the zone of inhibition at 3000 µg/mL turned out to be 0 mm with Penicillium avellaneum; 14 mm in the experiment with Bacillus subtilis; 0 mm in the experiment on Streptococcus faecalis; 14 mm with Escherichia coli; 14 mm with Aerobacter aerogenes. The response vs control in vivo at 12.5 mg/kg in experiment [1] came out at 173%. In addition, the response vs control in vivo at 25 mg/kg in experiment [1] worked out at 194%.
`CN1CCN(c2ccc3c4c(nn3CCNCCO)-c3c(O)ccc(O)c3C(=O)c24)CC1` [Example 64, 7,10-Dihydroxy-2-[2-[(2-hydroxyethyl)amino]ethyl]-5-(4-methyl-1-piperazinyl)anthra[1,9-cd]pyrazol-6(2H)-one]: the zone of inhibition at 3000 µg/mL with Penicillium avellaneum amounted to 0 mm. In experiment [1], the response vs control in vivo at 6.25 mg/kg was 163%, the response vs control in vivo at 12.5 mg/kg is 169% and the response vs control in vivo at 25 mg/kg is 150%. Also, the zone of inhibition at 3000 µg/mL in the experiment on Bacillus subtilis was found to be 0 mm. Moreover, the zone of inhibition at 3000 µg/mL in the experiment with Streptococcus faecalis was 0 mm. Moreover, the zone of inhibition at 1000 µg/mL in the experiment on Escherichia coli is 14 mm. Besides, the zone of inhibition at 500 µg/mL in the experiment on Aerobacter aerogenes is 17 mm.
Consider `CN(C)CCN(C)c1ccc2c3c(nn2CCNCCO)-c2c(O)ccc(O)c2C(=O)c13` [Example 65, 5-([2-(Dimethylamino)ethyl]methylamino]-7,10-dihydroxy-2-[2-[(2-hydroxyethyl)amino]ethyl]anthra[1,9-cd]pyrazol-6(2H)-one], for which the zone of inhibition at 3000 µg/mL in the experiment on Penicillium avellaneum stood at 0 mm; in the experiment on Bacillus subtilis, 0 mm; in the experiment with Streptococcus faecalis, 0 mm; in the experiment on Escherichia coli it was 15 mm. Moreover, the response vs control in vivo at 6.25 mg/kg in experiment [1] was 179%. Moreover, in experiment [1], the response vs control in vivo at 12.5 mg/kg worked out at 188%. Moreover, the zone of inhibition at 500 µg/mL in the experiment with Aerobacter aerogenes came to 16 mm.
Turning to `CN(C)CCNc1ccc2c3c(nn2CCNCCO)-c2c(O)ccc(O)c2C(=O)c13` [Example 56, 5-[[2-(Dimethylamino)ethyl]amino]-7,10-dihydroxy-2-[2-[(2-hydroxyethyl)amino]ethyl]anthra[1,9-cd]pyrazol-6(2H)-one], the zone of inhibition at 3000 µg/mL with Penicillium avellaneum was 0 mm. In addition, the response vs control in vivo at 0.78 mg/kg in experiment [1] (P388, Dose 0.78 mg/kg intraperitoneally) was found to be 152%. For the same molecule, in experiment [1] (P388, Dose 1.56 mg/kg intraperitoneally), the response vs control in vivo at 1.56 mg/kg turned out to be 161%. Also, in experiment [1], the response vs control in vivo at 3.12 mg/kg was found to be 165%, the response vs control in vivo at 6.25 mg/kg stood at 165% and the response vs control in vivo at 25 mg/kg was found to be 88%. For the same molecule, the zone of inhibition at 1000 µg/mL in the experiment with Bacillus subtilis (Dose 1.0 mg/ml) came out at 14 mm. Further, the zone of inhibition at 1000 µg/mL in the experiment on Streptococcus faecalis (Dose 1.0 mg/ml) was 14 mm. The zone of inhibition at 500 µg/mL in the experiment on Escherichia coli (Dose 0.5 mg/ml) was found to be 14 mm. In addition, in the experiment with Aerobacter aerogenes, the zone of inhibition at 500 µg/mL came out at 14 mm.
On to `CN(C)CCCn1nc2c3c(c(NCCN)ccc31)C(=O)c1c(O)ccc(O)c1-2` [Example 94, 5-[(2-Aminoethyl)amino]-2-[3-(dimethylamino)propyl]-7,10-dihydroxyanthra[1,9-cd]pyrazol-6(2H)-one], for which the zone of inhibition at 3000 µg/mL in the experiment on Penicillium avellaneum came out at 0 mm; in the experiment on Bacillus subtilis, 0 mm; with Streptococcus faecalis, 0 mm; in the experiment on Escherichia coli it was 15 mm; in the experiment with Aerobacter aerogenes, 15 mm. In addition, in experiment [1], the response vs control in vivo at 3.12 mg/kg came out at 191%. The response vs control in vivo at 6.25 mg/kg in experiment [1] came out at 186%. Also, in experiment [1], the response vs control in vivo at 12.5 mg/kg was 224%.
